Measured values: patent US9315475B2 (MERCK SHARP & DOHME CORP., priority 2011, dated 2016)

Tests used:
[1] = target: T1, wildtype HIV-1 protease (Human immunodeficiency virus type 1 group M subtype B, UniProt P04585); assay: Assay for inhibition of microbial expressed HIV protease (Pepcleav); type: biochemical; conditions: wild type HIV-1 protease expressed in E. coli, peptide substrate, pH 5.5; mean of at least two independent experiments; read-out: Pepcleav
T1 construct: the wildtype HIV-1 protease (which was expressed in Escherichia coli); made in house; host or cells: Escherichia coli
Method in brief: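 E. coli-expressed wild-type HIV-1 protease (20 pM) preincubated 30 min at room temperature with inhibitor in pH 5.5 sodium acetate/NaCl/BSA buffer, then 400 μM Val-Ser-Gln-Asn-(βnaphthyl)Ala-Pro-Ile-Val added for 1 h at 30 °C. Quenched with formic acid; product quantified by LC-MS/MS peak area, indinavir internal standard.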

[2] = tested on: HIV-1 (H9IIIB strain); assay: Antiviral acute infection assay in cell culture (Spread); type: cell-based; conditions: Human immunodeficiency virus 1, T-lymphoid, HIV-1 H9IIIB infection of MT-4 human T-lymphoid cells in 10% FBS; mean of at least two independent experiments
Source text: Antiviral Assays in Cell Culture (“Spread”)
Acute Infection Assay (“Spread”) data were generated using HIV-1 (H9IIIB strain) infection of MT-4 human T-lymphoid cells in 10% FBS, and according to the methods disclosed by J. P. Vacca et al, “L-735,524: An orally bioavailable human immunodeficiency virus type 1 protease inhibitor,” Proc. Natl. Acad. Sci. USA, Vol. 91, pp. 4096-4100 (April 1994).

| Structure (SMILES) | IC50 [1] [nM] | EC50 [2] [nM] |
| --- | --- | --- |
| C[C@H](Oc1c(F)cccc1NC(=O)[C@@H](N)C(c1ccc(F)cc1)c1ccc(F)cc1)[C@@H]1CN[C@H](COC(=O)NCC(F)(F)F)CO1 [Example 193, 4-fluoro-β-(4-fluorophenyl)-N-(3-fluoro-2-{(1S)-1-[(2S,5S)-5-({[(2,2,2-trifluoroethyl)carbamoyl]oxy}methyl)morpholin-2-yl]ethoxy}phenyl)-L-phenylalaninamide] | 120 | 1400 |
| N[C@H](C(=O)Nc1cncc(F)c1CC[C@@H]1CN[C@H](COC(=O)NCC(F)(F)F)CO1)[C@H](c1ccc(F)cc1)c1ccc(Br)cc1 [Example 275, (βR)-4-bromo-β-(4-fluorophenyl)-N-(5-fluoro-4-{2-[(2R,5S)-5-({[(2,2,2-trifluoroethyl)carbamoyl]oxy}methyl)morpholin-2-yl]ethyl}pyridin-3-yl)-L-phenylalaninamide] | 0.4 | 25 |
| N[C@H](C(=O)Nc1cccc(F)c1OC[C@@H]1CN[C@H](COC(=O)NCC(F)(F)F)CO1)C(c1ccc(F)cc1)c1ccc(F)cc1 [Example 82, ((3S,6S)-6-((2-((S)-2-amino-3,3-bis(4-fluorophenyl)propanamido)-6-fluorophenoxy)methyl)morpholin-3-yl)methyl (2,2,2-trifluoroethyl)carbamate] | 11 | 40 |
| CNC(=O)OC[C@@H]1CO[C@H](CCc2c(F)cncc2NC(=O)[C@@H](N)C(c2ccc(F)cc2)c2ccc(F)cc2)CN1 [Example 205, 4-fluoro-N-(5-fluoro-4-{2-[(2R,5S)-5-{[(methylcarbamoyl)oxy]methyl}morpholin-2-yl]ethyl}pyridin-3-yl)-β-(4-fluorophenyl)-L-phenylalaninamide] | 24 | 58 |
| COC(=O)N[C@H](C(=O)Nc1cncc(F)c1CC[C@@H]1CN[C@H](COC(=O)NCC(F)(F)F)CO1)[C@H](c1ccccc1)c1ccc(Cl)cc1 [Example 107, (βR)-β-(4-Chlorophenyl)-N-(5-fluoro-4-{2-[(2R,5S)-5-({[(2,2,2-trifluoroethyl)carbamoyl]oxy}methyl)morpholin-2-yl]ethyl}pyridin-3-yl)-Nα-(methoxycarbonyl)-L-phenylalaninamide] | 0.3 | 11 |
| COC(=O)N[C@H](C(=O)Nc1cncc(F)c1CC[C@@H]1CN[C@H](COC(=O)NCC(F)(F)F)CO1)[C@@H](c1ccc(F)cc1)c1cc(F)ccc1F [Example 300, (βS)-2,5-difluoro-β-(4-fluorophenyl)-N-(5-fluoro-4-{2-[(2R,5S)-5-({[(2,2,2-trifluoroethyl)carbamoyl]oxy}methyl)morpholin-2-yl]ethyl}pyridin-3-yl)-Nα-(methoxycarbonyl)-L-phenylalaninamide] | 1.6 | 18 |
| COC(=O)N[C@H](C(=O)Nc1cccc(F)c1CC[C@@H]1CN[C@H](COC(=O)NCC(F)(F)F)CO1)[C@H](c1ccc(F)cc1)c1ccc(F)c(F)c1 [Example 295, (βR)-β-(3,4-difluorophenyl)-4-fluoro-N-(3-fluoro-2-{2-[(2R,5S)-5-({[(2,2,2-trifluoroethyl)carbamoyl]oxy}methyl)morpholin-2-yl]ethyl}phenyl)-Nα-(methoxy-carbonyl)-L-phenylalaninamide] | 2.5 | 13 |
| N[C@H](C(=O)Nc1cncc(F)c1CC[C@@H]1CN[C@H](COC(=O)NC2(c3ccccn3)CC2)CO1)C(c1ccc(F)cc1)c1ccc(F)cc1 [Example 214, 4-fluoro-β-(4-fluorophenyl)-N-(5-fluoro-4-{2-[(2R,5S)-5-({[(1-pyridin-2-ylcyclopropyl)carbamoyl]oxy}methyl)morpholin-2-yl]ethyl}pyridin-3-yl)-L-phenylalaninamide] | 5.2 | 58 |
| N[C@H](C(=O)Nc1cncc(F)c1CC[C@@H]1CN[C@H](COC(=O)NCC(F)(F)F)CO1)[C@H](c1ccc(F)cc1)c1cccc(Cl)c1 [Example 266, (βR)-3-chloro-β-(4-fluorophenyl)-N-(5-fluoro-4-{2-[(2R,5S)-5-({[(2,2,2-trifluoroethyl)carbamoyl]oxy}methyl)morpholin-2-yl]ethyl}pyridin-3-yl)-L-phenylalaninamide] | 3.1 | 50 |
| N[C@H](C(=O)Nc1cccc(F)c1CC[C@@H]1CN[C@H](COC(=O)NCC(F)(F)F)CO1)[C@@H](c1ccc(F)cc1)c1cccc(OC(F)(F)F)c1 [Example 263, (βS)-4-fluoro-N-(3-fluoro-2-{2-[(2R,5S)-5-({[(2,2,2-trifluoroethyl)carbamoyl]oxy}methyl)morpholin-2-yl]ethyl}phenyl)-β-[3-(trifluoromethoxy)phenyl]-L-phenylalaninamide] | 3.7 | 48 |
| NC(=O)OC[C@@H]1CO[C@H](COc2c(F)cncc2NC(=O)[C@@H](N)C(c2ccc(F)cc2)c2ccc(F)cc2)CN1 [Example 206, N-[4-({(2S,5S)-5-[(carbamoyloxy)methyl]morpholin-2-yl}methoxy)-5-fluoropyridin-3-yl]-4-fluoro-β-(4-fluorophenyl)-L-phenylalaninamide] | 21 | 120 |
| N[C@H](C(=O)Nc1cccc(F)c1CC[C@@H]1CN[C@H](COC(=O)NCC(F)(F)F)CO1)C(c1cccc(F)c1)c1cccc(F)c1 [Example 262, 3-fluoro-β-(3-fluorophenyl)-N-(3-fluoro-2-{2-[(2R,5S)-5-({[(2,2,2-trifluoroethyl)carbamoyl]oxy}methyl)morpholin-2-yl]ethyl}phenyl)-L-phenylalaninamide] | 4 | 15 |
| COC(=O)N[C@H](C(=O)Nc1cccc(F)c1CC[C@@H]1CN[C@H](COC(=O)NCC(F)(F)F)CO1)[C@@H](c1ccc(F)cc1)c1cc(F)cc(F)c1 [Example 292, (βS)-3,5-difluoro-β-(4-fluorophenyl)-N-(3-fluoro-2-{2-[(2R,5S)-5-({[(2,2,2-trifluoroethyl)carbamoyl]oxy}methyl)morpholin-2-yl]ethyl}phenyl)-Nα-(methoxy-carbonyl)-L-phenylalaninamide] | 3.6 | 16 |
| COC(=O)N[C@H](C(=O)Nc1cccc(F)c1CC[C@@H]1CN[C@H](COC(=O)NCC(F)(F)F)CO1)[C@@H](c1ccc(F)cc1)c1cccc(F)c1 [Example 287] | 6 | 17 |
| CCC(CO)NC(=O)OC[C@@H]1CO[C@H](CCc2c(F)cncc2NC(=O)CC(c2ccc(F)cc2)c2ccc(F)cc2)CN1 (stereo partly drawn) [Example 165, {(3S,6R)-6-[2-(3-{[3,3-bis(4-fluorophenyl)propanoyl]amino}-5-fluoropyridin-4-yl)ethyl]morpholin-3-yl}methyl [1-(hydroxy-methyl)propyl]carbamate] | 4.5 | 40 |
| COC(=O)N[C@H](C(=O)Nc1cncc(F)c1CC[C@@H]1CN[C@H](COC(=O)NCC(F)(F)F)CO1)[C@H](c1ccc(F)cc1)c1cccc(F)c1 [Example 282, (βR)-4-fluoro-β-(3-fluorophenyl)-N-(5-fluoro-4-{2-[(2R,5S)-5-({[(2,2,2-trifluoroethyl)carbamoyl]oxy}methyl)morpholin-2-yl]ethyl}pyridin-3-yl)-Nα-(methoxycarbonyl)-L-phenylalaninamide] | 3.7 | 25 |
| COC(=O)N[C@H](C(=O)Nc1cccc(F)c1CC[C@@H]1CN[C@H](COC(=O)NCC(F)(F)F)CO1)[C@H](c1ccc(F)cc1)c1ccc2ccccc2c1 [Example 289] | 16 | 310 |
| COC(=O)N[C@H](C(=O)Nc1cncc(F)c1CC[C@@H]1CN[C@H](COC(=O)NCC(F)(F)F)CO1)[C@H](c1ccc(F)cc1)c1ccc(Br)cc1 [Example 298, (βR)-β-(4-bromophenyl)-4-fluoro-N-(5-fluoro-4-{2-[(2R,5S)-5-({[(2,2,2-trifluoroethyl)carbamoyl]oxy}methyl)morpholin-2-yl]ethyl}pyridin-3-yl)-Nα-(methoxycarbonyl)-L-phenylalaninamide] | 0.3 | 14 |
| N[C@H](C(=O)Nc1cccc(F)c1CC[C@@H]1CN[C@H](COC(=O)NCC(F)(F)F)CO1)[C@H](c1ccccc1)c1ccc2ccccc2c1 [Example 241, (βR)-N-(3-fluoro-2-{2-[(2R,5S)-5-({[(2,2,2-trifluoroethyl)carbamoyl]oxy}methyl)morpholin-2-yl]ethyl}phenyl)-β-naphthalen-2-yl-L-phenylalaninamide] | 32 | 360 |
| N[C@H](C(=O)Nc1cncc(F)c1CC[C@@H]1CN[C@H](COC(=O)NCC(F)(F)F)CO1)[C@H](c1ccccc1)c1ccc(F)c(F)c1 [Example 259, (βR)-β-(3,4-difluorophenyl)-N-(5-fluoro-4-{2-[(2R,5S)-5-({[(2,2,2-trifluoroethyl)carbamoyl]oxy}methyl)morpholin-2-yl]ethyl}pyridin-3-yl)-L-phenylalaninamide] | 5 | 66 |
| COC(=O)N[C@H](C(=O)Nc1cncc(F)c1CC[C@@H]1CN[C@H](COC(=O)NCC(F)(F)F)CO1)[C@H](c1ccc(F)cc1)c1ccc(OC(F)(F)F)cc1 [Example 283] | 14 | 69 |
| N[C@H](C(=O)Nc1cncc(F)c1CC[C@@H]1CN[C@H](COC(=O)NCC(F)(F)F)CO1)[C@H](c1ccc(F)cc1)c1ccc(OC(F)(F)F)cc1 [Example 246, (βS)-β-(4-fluorophenyl)-N-(5-fluoro-4-{2-[(2R,5S)-5-({[(2,2,2-trifluoroethyl)carbamoyl]oxy}methyl)morpholin-2-yl]ethyl}pyridin-3-yl)-O-(trifluoromethyl)-L-tyrosinamide] | 13 | 390 |
